Columns and labels:
Test in all cases: radiometric filter-binding kinase assay
PAK4 (human) = PAK4 (human) (UniProt O96013); conditions: compound 100.0 µM; ATP 5 µM
CHEK2 (human) = CHEK2 (human) (UniProt O96017); conditions: compound 100.0 µM; ATP 20 µM
NEK2 (human) = NEK2 (human) (UniProt P51955); conditions: compound 100.0 µM; ATP 50 µM
ZAP70 (human) = ZAP70 (human) (UniProt P43403); conditions: compound 100.0 µM; ATP 5 µM
MAPK13 (human) = MAPK13 (human) (UniProt O15264); conditions: compound 100.0 µM; ATP 5 µM
PKN2 (human) = PKN2 (human) (UniProt Q16513); conditions: compound 100.0 µM; ATP 5 µM
YES1 (human) = YES1 (human) (UniProt P07947); conditions: compound 100.0 µM; ATP 20 µM
IKBKB (human) = IKBKB (human) (UniProt O14920); conditions: compound 100.0 µM; ATP 5 µM
MAPK14 (human) = MAPK14 (human) (UniProt Q16539); conditions: compound 100.0 µM; ATP 50 µM
[1] = test system: PAK2 (human), Q13177 [T402E]; conditions: compound 100.0 µM; ATP 20 µM
ABL1 (human) = ABL1 (human) (UniProt P00519); conditions: compound 100.0 µM; ATP 5 µM
EPHB2 (human) = EPHB2 (human) (UniProt P29323); conditions: compound 100.0 µM; ATP 20 µM
RPS6KA3 KD1 KD2 (human) = RPS6KA3 KD1 KD2 (human) (UniProt P51812); conditions: compound 100.0 µM; ATP 50 µM
CDK2 CCNA2 (human) = CDK2 CCNA2 (human) (UniProt P20248+P24941); conditions: compound 100.0 µM; ATP 20 µM
[2] = test system: AKT2 (human), P31751 [S474D]; conditions: compound 100.0 µM; ATP 50 µM
MAPK3 (human) = MAPK3 (human) (UniProt P27361); conditions: compound 100.0 µM; ATP 5 µM
MAPK3 (human), sequence (P27361 whole entry, looked up): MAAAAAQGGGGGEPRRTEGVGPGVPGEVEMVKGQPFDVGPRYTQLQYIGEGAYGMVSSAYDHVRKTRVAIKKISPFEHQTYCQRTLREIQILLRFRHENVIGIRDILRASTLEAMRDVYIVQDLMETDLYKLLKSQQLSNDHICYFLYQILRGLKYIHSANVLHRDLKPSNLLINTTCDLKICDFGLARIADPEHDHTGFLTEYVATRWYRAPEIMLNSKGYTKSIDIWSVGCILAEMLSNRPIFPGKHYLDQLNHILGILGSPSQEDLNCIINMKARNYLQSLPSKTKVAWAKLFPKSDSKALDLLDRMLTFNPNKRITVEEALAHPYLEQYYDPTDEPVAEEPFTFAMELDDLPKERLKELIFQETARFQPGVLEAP

TTK (human) = TTK (human) (UniProt P33981); conditions: compound 100.0 µM; ATP 20 µM
TTK (human), sequence (P33981 whole entry, looked up): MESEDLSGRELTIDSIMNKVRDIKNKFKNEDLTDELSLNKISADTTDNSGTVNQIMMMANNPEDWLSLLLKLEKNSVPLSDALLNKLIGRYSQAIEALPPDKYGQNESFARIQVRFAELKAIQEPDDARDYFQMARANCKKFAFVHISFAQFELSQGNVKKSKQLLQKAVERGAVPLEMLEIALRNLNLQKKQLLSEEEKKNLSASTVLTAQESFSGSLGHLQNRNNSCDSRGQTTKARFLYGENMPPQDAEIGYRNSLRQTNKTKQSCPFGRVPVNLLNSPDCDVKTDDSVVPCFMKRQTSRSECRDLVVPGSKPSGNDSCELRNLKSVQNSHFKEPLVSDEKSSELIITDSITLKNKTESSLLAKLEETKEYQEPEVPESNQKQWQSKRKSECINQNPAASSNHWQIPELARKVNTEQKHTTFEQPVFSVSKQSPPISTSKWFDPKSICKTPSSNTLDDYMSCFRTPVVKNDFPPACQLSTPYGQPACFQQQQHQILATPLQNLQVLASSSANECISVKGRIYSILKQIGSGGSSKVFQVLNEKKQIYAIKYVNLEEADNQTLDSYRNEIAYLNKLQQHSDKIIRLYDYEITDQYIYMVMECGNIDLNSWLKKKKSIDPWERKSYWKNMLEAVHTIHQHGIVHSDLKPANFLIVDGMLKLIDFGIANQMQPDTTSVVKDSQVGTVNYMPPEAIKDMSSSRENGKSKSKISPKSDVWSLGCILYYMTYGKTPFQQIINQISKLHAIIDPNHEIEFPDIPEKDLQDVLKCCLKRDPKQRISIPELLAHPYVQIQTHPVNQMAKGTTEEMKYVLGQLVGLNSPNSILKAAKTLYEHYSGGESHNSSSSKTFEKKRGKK

RPS6KA5 KD1 KD2 (human) = RPS6KA5 KD1 KD2 (human) (UniProt O75582); conditions: compound 100.0 µM; ATP 20 µM
RPS6KA5 KD1 KD2 (human), sequence (O75582 whole entry, looked up): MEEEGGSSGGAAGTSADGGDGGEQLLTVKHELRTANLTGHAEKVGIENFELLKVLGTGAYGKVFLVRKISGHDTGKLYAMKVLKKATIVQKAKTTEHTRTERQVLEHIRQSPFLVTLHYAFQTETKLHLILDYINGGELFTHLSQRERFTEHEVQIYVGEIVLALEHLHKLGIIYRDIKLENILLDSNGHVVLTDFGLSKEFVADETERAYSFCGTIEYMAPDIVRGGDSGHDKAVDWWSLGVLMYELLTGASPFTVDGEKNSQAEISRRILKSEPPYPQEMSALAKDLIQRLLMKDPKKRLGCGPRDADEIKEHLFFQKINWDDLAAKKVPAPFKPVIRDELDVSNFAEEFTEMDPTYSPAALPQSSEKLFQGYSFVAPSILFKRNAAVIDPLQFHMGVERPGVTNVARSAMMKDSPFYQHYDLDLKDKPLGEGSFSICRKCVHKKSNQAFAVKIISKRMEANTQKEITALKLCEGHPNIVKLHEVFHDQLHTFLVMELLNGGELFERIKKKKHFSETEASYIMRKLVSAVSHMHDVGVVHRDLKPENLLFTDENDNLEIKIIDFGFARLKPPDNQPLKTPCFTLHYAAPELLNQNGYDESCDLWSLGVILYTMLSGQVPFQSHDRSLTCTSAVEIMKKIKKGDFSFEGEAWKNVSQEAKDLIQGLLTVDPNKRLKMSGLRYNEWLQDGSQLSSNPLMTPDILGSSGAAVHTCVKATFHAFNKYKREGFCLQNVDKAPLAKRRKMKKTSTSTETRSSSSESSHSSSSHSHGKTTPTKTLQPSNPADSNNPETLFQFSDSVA

MAPKAPK5 (human) = MAPKAPK5 (human) (UniProt Q8IW41); conditions: compound 100.0 µM; ATP 20 µM
MAPK1 (human) = MAPK1 (human) (UniProt P28482); conditions: compound 100.0 µM; ATP 20 µM
INSRR (human) = INSRR (human) (UniProt P14616); conditions: compound 100.0 µM; ATP 5 µM
[3] = test system: SGK1 (human), O00141 [S422D]; conditions: compound 100.0 µM; ATP 20 µM
PIM2 (human) = PIM2 (human) (UniProt Q9P1W9); conditions: compound 100.0 µM; ATP 5 µM
CSNK2A1 (human) = CSNK2A1 (human) (UniProt P68400); conditions: compound 100.0 µM; ATP 5 µM
MAPK9 (human) = MAPK9 (human) (UniProt P45984); conditions: compound 100.0 µM; ATP 20 µM
MKNK2 (human) = MKNK2 (human) (UniProt Q9HBH9); conditions: compound 100.0 µM; ATP 50 µM
MKNK2 (human), sequence (Q9HBH9 whole entry, looked up): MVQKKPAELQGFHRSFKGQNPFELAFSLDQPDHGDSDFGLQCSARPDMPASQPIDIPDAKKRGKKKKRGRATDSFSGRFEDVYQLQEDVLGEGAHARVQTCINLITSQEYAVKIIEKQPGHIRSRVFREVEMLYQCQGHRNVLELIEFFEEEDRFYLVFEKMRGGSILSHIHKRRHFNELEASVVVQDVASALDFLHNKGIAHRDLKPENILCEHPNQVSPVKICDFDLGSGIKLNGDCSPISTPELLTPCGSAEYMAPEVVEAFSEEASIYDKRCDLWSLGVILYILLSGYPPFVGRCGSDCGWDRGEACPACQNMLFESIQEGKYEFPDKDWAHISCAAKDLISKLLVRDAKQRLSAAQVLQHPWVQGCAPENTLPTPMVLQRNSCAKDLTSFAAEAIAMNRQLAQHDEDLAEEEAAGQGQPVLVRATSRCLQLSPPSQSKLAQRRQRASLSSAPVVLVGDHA

MAP3K11 (human) = MAP3K11 (human) (UniProt Q16584); conditions: compound 100.0 µM; ATP 20 µM
MELK (human) = MELK (human) (UniProt Q14680); conditions: compound 100.0 µM; ATP 50 µM
MELK (human), sequence (Q14680 whole entry, looked up): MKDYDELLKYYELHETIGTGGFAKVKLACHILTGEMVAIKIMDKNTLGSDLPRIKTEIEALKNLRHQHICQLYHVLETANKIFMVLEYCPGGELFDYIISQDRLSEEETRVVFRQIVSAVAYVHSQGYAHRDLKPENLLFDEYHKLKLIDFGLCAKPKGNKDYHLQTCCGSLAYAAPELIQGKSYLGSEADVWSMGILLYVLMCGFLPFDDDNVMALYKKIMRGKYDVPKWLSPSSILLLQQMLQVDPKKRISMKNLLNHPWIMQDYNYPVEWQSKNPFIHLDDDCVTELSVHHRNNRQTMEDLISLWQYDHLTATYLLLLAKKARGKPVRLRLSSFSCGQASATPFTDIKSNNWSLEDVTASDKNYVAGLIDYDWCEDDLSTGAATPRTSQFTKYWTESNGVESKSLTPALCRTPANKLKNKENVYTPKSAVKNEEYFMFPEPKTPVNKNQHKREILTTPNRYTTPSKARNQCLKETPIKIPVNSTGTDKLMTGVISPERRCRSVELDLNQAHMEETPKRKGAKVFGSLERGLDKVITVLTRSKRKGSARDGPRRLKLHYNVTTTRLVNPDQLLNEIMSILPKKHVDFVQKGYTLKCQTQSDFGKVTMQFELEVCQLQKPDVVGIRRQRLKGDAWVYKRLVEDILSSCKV

HIPK2 (human) = HIPK2 (human) (UniProt Q9H2X6); conditions: compound 100.0 µM; ATP 5 µM
INSR (human) = INSR (human) (UniProt P06213); conditions: compound 100.0 µM; ATP 20 µM
DYRK2 (human) = DYRK2 (human) (UniProt Q92630); conditions: compound 100.0 µM; ATP 50 µM
SRPK1 (human) = SRPK1 (human) (UniProt Q96SB4); conditions: compound 100.0 µM; ATP 50 µM
PDPK1 (human) = PDPK1 (human) (UniProt O15530); conditions: compound 100.0 µM
PDPK1 (human), sequence (O15530 whole entry, looked up): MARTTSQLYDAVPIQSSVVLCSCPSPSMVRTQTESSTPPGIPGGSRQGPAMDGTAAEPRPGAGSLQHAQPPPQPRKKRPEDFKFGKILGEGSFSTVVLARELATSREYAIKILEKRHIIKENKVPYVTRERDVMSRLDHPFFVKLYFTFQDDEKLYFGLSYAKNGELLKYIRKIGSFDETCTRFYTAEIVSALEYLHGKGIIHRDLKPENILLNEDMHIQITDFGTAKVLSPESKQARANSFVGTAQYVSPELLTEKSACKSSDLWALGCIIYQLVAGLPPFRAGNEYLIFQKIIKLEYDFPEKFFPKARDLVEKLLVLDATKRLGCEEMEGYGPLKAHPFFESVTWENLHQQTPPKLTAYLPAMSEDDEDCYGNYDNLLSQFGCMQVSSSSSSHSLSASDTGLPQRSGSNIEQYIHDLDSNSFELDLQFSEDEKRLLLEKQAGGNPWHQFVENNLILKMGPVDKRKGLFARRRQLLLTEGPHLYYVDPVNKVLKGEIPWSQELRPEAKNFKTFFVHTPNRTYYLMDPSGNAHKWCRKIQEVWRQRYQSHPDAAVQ

[4] = target: STK11 CAB39 STRADA (human) (UniProt Q9Y376+Q7RTN6+Q15831); conditions: compound 100.0 µM; ATP 20 µM
MAPKAPK3 (human) = MAPKAPK3 (human) (UniProt Q16644); conditions: compound 100.0 µM; ATP 20 µM
IGF1R (human) = IGF1R (human) (UniProt P08069); conditions: compound 100.0 µM; ATP 5 µM
IGF1R (human), sequence (P08069 whole entry, looked up): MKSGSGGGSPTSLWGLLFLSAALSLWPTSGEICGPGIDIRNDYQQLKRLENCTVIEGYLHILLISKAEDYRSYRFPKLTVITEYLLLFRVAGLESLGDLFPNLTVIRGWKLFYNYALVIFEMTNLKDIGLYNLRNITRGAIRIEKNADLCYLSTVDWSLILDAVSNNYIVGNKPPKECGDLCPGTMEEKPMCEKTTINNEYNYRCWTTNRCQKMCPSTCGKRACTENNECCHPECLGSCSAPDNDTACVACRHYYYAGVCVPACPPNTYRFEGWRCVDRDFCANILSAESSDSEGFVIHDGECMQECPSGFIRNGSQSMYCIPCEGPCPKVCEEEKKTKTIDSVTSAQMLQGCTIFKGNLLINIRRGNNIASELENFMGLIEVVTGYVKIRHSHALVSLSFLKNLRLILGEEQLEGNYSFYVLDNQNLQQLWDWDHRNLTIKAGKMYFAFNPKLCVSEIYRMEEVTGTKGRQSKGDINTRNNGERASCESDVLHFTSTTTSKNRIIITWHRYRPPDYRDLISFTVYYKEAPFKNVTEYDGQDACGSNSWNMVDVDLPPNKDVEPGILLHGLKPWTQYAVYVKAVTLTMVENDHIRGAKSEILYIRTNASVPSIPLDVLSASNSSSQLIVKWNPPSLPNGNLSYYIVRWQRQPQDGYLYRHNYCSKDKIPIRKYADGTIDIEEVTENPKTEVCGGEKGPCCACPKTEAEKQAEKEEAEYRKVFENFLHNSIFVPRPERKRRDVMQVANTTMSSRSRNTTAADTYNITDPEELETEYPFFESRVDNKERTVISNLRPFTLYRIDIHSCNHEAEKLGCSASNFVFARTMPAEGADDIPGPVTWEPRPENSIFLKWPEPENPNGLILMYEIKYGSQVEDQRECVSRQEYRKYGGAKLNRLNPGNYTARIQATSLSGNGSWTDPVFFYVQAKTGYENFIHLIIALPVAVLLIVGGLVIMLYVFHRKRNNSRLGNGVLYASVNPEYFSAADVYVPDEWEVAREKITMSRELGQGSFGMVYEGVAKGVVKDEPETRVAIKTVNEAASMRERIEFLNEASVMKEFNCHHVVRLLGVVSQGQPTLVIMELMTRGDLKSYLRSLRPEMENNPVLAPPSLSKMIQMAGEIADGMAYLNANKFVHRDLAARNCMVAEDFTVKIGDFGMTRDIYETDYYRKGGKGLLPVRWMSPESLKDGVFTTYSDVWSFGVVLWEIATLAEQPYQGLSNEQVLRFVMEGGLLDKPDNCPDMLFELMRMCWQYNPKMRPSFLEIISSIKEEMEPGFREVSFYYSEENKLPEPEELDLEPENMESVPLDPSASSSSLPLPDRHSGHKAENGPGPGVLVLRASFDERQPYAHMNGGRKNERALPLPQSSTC

JAK2 JH1 JH2 (human) = JAK2 JH1 JH2 (human) (UniProt O60674); conditions: compound 100.0 µM; ATP 5 µM
FLT1 (human) = FLT1 (human) (UniProt P17948); conditions: compound 100.0 µM; ATP 20 µM
MINK1 (human) = MINK1 (human) (UniProt Q8N4C8); conditions: compound 100.0 µM; ATP 50 µM

| inhibition (PAK4 (human)) | inhibition (CHEK2 (human)) | inhibition (NEK2 (human)) | inhibition (ZAP70 (human)) | inhibition (MAPK13 (human)) | inhibition (PKN2 (human)) | inhibition (YES1 (human)) | inhibition (IKBKB (human)) | inhibition (MAPK14 (human)) | inhibition [1] | inhibition (ABL1 (human)) | inhibition (EPHB2 (human)) | inhibition (RPS6KA3 KD1 KD2 (human)) | inhibition (CDK2 CCNA2 (human)) | inhibition [2] | inhibition (MAPK3 (human)) | inhibition (TTK (human)) | inhibition (RPS6KA5 KD1 KD2 (human)) | inhibition (MAPKAPK5 (human)) | inhibition (MAPK1 (human)) | SMILES | further results |
| --- | --- | --- | --- | --- | --- | --- | --- | --- | --- | --- | --- | --- | --- | --- | --- | --- | --- | --- | --- | --- | --- |
| 0% | 0% | 0% | 1% | 0% | 17% | 0% | 11% | 0% | 10% | 0% | 0% | 13% | 33% | 31% | 0% | 10% | 0% | 13% | 0% | CC(C)(C)Nc1c(C2CC2)nc2[nH]cnn12 | inhibition (INSRR (human)): 0%; inhibition [3]: 0%; inhibition (PIM2 (human)): 15%; inhibition (CSNK2A1 (human)): 9%; inhibition (MAPK9 (human)): 3%; inhibition (MKNK2 (human)): 9%; inhibition (MAP3K11 (human)): 0%; inhibition (MELK (human)): 0%; inhibition (HIPK2 (human)): 22%; inhibition (INSR (human)): 0%; inhibition (DYRK2 (human)): 4%; inhibition (SRPK1 (human)): 0%; inhibition (PDPK1 (human); ATP 20 µM): 3%; inhibition (PDPK1 (human); ATP 50 µM): 11%; inhibition [4]: 0%; inhibition (MAPKAPK3 (human)): 10%; inhibition (IGF1R (human)): 0%; inhibition (JAK2 JH1 JH2 (human)): 3%; inhibition (FLT1 (human)): 12%; inhibition (MINK1 (human)): 0% |
| 0% | 13% | 38% | 0% | 15% | 93% | 42% | 0% | 35% | 56% | 14% | 0% | 42% | 17% | 37% | 31% | 20% | 6% | 26% | 14% | Cc1cccc(C)c1-c1cn2nc(N)nc2cn1 | inhibition (INSRR (human)): 24%; inhibition [3]: 19%; inhibition (PIM2 (human)): 2%; inhibition (CSNK2A1 (human)): 17%; inhibition (MAPK9 (human)): 0%; inhibition (MKNK2 (human)): 30%; inhibition (MAP3K11 (human)): 0%; inhibition (MELK (human)): 8%; inhibition (HIPK2 (human)): 8%; inhibition (INSR (human)): 24%; inhibition (DYRK2 (human)): 21%; inhibition (SRPK1 (human)): 31%; inhibition (PDPK1 (human); ATP 20 µM): 15%; inhibition (PDPK1 (human); ATP 50 µM): 13%; inhibition [4]: 0%; inhibition (MAPKAPK3 (human)): 33%; inhibition (IGF1R (human)): 5%; inhibition (JAK2 JH1 JH2 (human)): 16%; inhibition (FLT1 (human)): 22%; inhibition (MINK1 (human)): 45% |
| 15% | 14% | 0% | 23% | 0% | 1% | 30% | 0% | 0% | 17% | 5% | 22% | 47% | 0% | 41% | 0% | 0% | 28% | 3% | 13% | COc1ccc(NC(=S)Nc2cnc3[nH]cnn3c2=O)cn1 | inhibition (INSRR (human)): 0%; inhibition [3]: 0%; inhibition (PIM2 (human)): 0%; inhibition (CSNK2A1 (human)): 28%; inhibition (MAPK9 (human)): 5%; inhibition (MKNK2 (human)): 0%; inhibition (MAP3K11 (human)): 0%; inhibition (MELK (human)): 0%; inhibition (HIPK2 (human)): 1%; inhibition (INSR (human)): 0%; inhibition (DYRK2 (human)): 27%; inhibition (SRPK1 (human)): 42%; inhibition (PDPK1 (human); ATP 20 µM): 29%; inhibition (PDPK1 (human); ATP 50 µM): 10%; inhibition [4]: 0%; inhibition (MAPKAPK3 (human)): 37%; inhibition (IGF1R (human)): 0%; inhibition (JAK2 JH1 JH2 (human)): 23%; inhibition (FLT1 (human)): 38%; inhibition (MINK1 (human)): 16% |
